Experiments:
[1] = test system: VERPE: Veronica persica; assay: Pre-emergence herbicide efficacy at 80 g/ha, VERPE; type: in vivo; details: scored visually after about 3 weeks
Description: (§1) Seeds of monocotyledonous and dicotyledonous weed plants and crop plants were placed in plastic or organic planting pots and covered with soil. The compounds of the invention, formulated in the form of wettable powders (WP) or as emulsion concentrates (EC), were then applied to the surface of the covering soil as aqueous suspension or emulsion with addition of 0.5% additive at a water application rate equivalent to 600 l/ha. After the treatment, the pots were placed in a greenhouse and kept under good growth conditions for the test plants. After about 3 weeks, the efficacy of the preparations was scored visually in comparison with untreated controls as percentages. For example, 100% activity=the plants have died, 0% activity=like control plants. Tables D1 to D12 below show the effects of selected compounds of the general formula (I) according to Table 1 on various harmful plants and an application rate corresponding to 80 g/ha, which were obtained by the experimental procedure mentioned above.

[2] = test system: AMARE: Amaranthus retroflexus; assay: Pre-emergence herbicide efficacy at 80 g/ha, AMARE; type: in vivo; details: scored visually after about 3 weeks
Method in brief: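 Pre-emergence soil-surface spray, WP/EC formulation, 0.5% additive, 600 l/ha water volume. Greenhouse, ~3 weeks. Visual % activity vs untreated (100% = dead plants).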

[3] = test system: POLCO; assay: Post-emergence herbicidal efficacy at 80 g/ha, POLCO; type: in vivo, Polygonum convolvulus; details: visual rating about 3 weeks after treatment vs untreated controls
Description: (§2) Seeds of monocotyledonous and dicotyledonous weeds and crop plants were placed in sandy loam in plastic or organic planting pots, covered with soil and cultivated in a greenhouse under controlled growth conditions. 2 to 3 weeks after sowing, the test plants were treated at the one-leaf stage. The compounds of the invention, formulated in the form of wettable powders (WP) or as emulsion concentrates (EC), were then sprayed onto the green parts of the plants as aqueous suspension or emulsion with addition of 0.5% additive at a water application rate of 600 l/ha (converted). After the test plants had been kept in the greenhouse under optimum growth conditions for about 3 weeks, the activity of the preparations was rated visually in comparison to untreated controls. For example, 100% activity=the plants have died, 0% activity=like control plants. Tables B1 to B10 below show the effects of selected compounds of the general formula (I) according to Table 1 on various harmful plants and an application rate corresponding to 80 g/ha, which were obtained by the experimental procedure mentioned above.

[4] = test system: VERPE: Veronica persica; assay: Post-emergence herbicidal efficacy at 80 g/ha, VERPE; type: in vivo; details: visual rating about 3 weeks after treatment vs untreated controls
Description: as §2

[5] = test system: AMARE: Amaranthus retroflexus; assay: Post-emergence herbicidal efficacy at 80 g/ha, AMARE; type: in vivo; details: visual rating about 3 weeks after treatment vs untreated controls
Method in brief: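 One-leaf-stage weeds in sandy loam were treated with aqueous suspensions or emulsions (0.5% additive, 600 l/ha) and held in the greenhouse for about 3 weeks before visual rating on a 0–100% scale versus untreated controls.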

[6] = test system: LOLRI: Lolium rigidum; assay: Post-emergence herbicidal efficacy at 1280 g/ha, LOLRI; type: in vivo; details: visual rating about 3 weeks after treatment vs untreated controls
Description: (§3) Seeds of mono- and dicotyledonous weed plants were placed in plastic pots in sandy loam soil (doubly sown with in each case one species of mono- or dicotyledonous weed plants per pot), covered with soil and cultivated in a greenhouse under controlled growth conditions. 2 to 3 weeks after sowing, the test plants were treated at the one-leaf stage. The compounds of the invention, formulated in the form of wettable powders (WP) or as emulsion concentrates (EC), were applied to the green parts of the plants as aqueous suspension or emulsion with addition of 0.5% additive at a water application rate equivalent to 600 litres per hectare. After the test plants had been kept in the greenhouse under optimum growth conditions for about 3 weeks, the activity of the preparations was rated visually in comparison to untreated controls. For example, 100% activity=the plants have died, 0% activity=like control plants. Tables A1 to A12 below show the effects of selected compounds of the general formula (I) according to Table 1 on various harmful plants and at an application rate corresponding to 1280 g/ha, which were obtained by the trial procedure specified above.

[7] = test system: VERPE: Veronica persica; assay: Pre-emergence herbicide efficacy at 1280 g/ha, VERPE; type: in vivo; details: visual scoring vs untreated controls
Method in brief: (§4)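 Visual scoring after about 3 weeks in the greenhouse, as percent activity relative to untreated pots, where 0% matches controls and 100% means dead plants. Treatment was pre-emergence: WP or EC formulations sprayed onto soil covering the sown seeds, 600 L/ha water plus 0.5% additive.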

[8] = test system: ABUTH: Abutilon theophrasti; assay: Pre-emergence herbicide efficacy at 1280 g/ha, ABUTH; type: in vivo; details: visual scoring after about 3 weeks vs untreated controls
Method in brief: as §4

[9] = test system: AMARE: Amaranthus retroflexus; assay: Pre-emergence herbicide efficacy at 1280 g/ha, AMARE; type: in vivo; details: visual scoring after about 3 weeks vs untreated controls
Method in brief: as §4

[10] = test system: SETVI: Setaria viridis; assay: Post-emergence herbicidal efficacy at 1280 g/ha, SETVI; type: in vivo; details: visual rating about 3 weeks after treatment vs untreated controls
Method in brief: (§5)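 Visual damage rating was made roughly 3 weeks after treatment, relative to untreated plants, on a scale where 0% means no effect and 100% means plants died. Foliar application was at the one-leaf stage as an aqueous WP/EC spray with 0.5% additive at 600 L/ha water, on greenhouse-grown pot plants.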

[11] = test system: POAAN: Poa annua; assay: Pre-emergence herbicide efficacy at 1280 g/ha, POAAN; type: in vivo; details: visual scoring after about 3 weeks vs untreated controls
Method in brief: as §4

[12] = test system: ABUTH: Abutilon theophrasti; assay: Post-emergence herbicidal efficacy at 1280 g/ha, ABUTH; type: in vivo; details: rated visually after about 3 weeks vs untreated controls, 100% = plants have died, 0% = like control plants
Method in brief: as §5

[13] = test system: DIGSA: Digitaria sanguinalis; assay: Pre-emergence herbicide efficacy at 1280 g/ha, DIGSA; type: in vivo; details: visual scoring after about 3 weeks vs untreated controls
Method in brief: as §4

[14] = test system: DIGSA: Digitaria sanguinalis; assay: Post-emergence herbicidal efficacy at 1280 g/ha, DIGSA; type: in vivo; details: rated visually after about 3 weeks vs untreated controls, 100% = plants have died, 0% = like control plants
Method in brief: as §5

[15] = test system: KCHSC: Kochia scoparia; assay: Pre-emergence herbicide efficacy at 1280 g/ha, KCHSC; type: in vivo; details: visual scoring after about 3 weeks vs untreated controls
Method in brief: as §4

[16] = test system: VERPE: Veronica persica; assay: Post-emergence herbicidal efficacy at 1280 g/ha, VERPE; type: in vivo; details: visual rating about 3 weeks after treatment vs untreated controls
Method in brief: as §5

[17] = test system: AMARE: Amaranthus retroflexus; assay: Post-emergence herbicidal efficacy at 1280 g/ha, AMARE; type: in vivo; details: rated visually after about 3 weeks vs untreated controls, 100% = plants have died, 0% = like control plants
Method in brief: as §5

[18] = test system: ECHCG: Echinochloa crus-galli; assay: Pre-emergence herbicide efficacy at 1280 g/ha, ECHCG; type: in vivo; details: visual scoring after about 3 weeks vs untreated controls
Method in brief: as §4

[19] = test system: SETVI: Setaria viridis; assay: Pre-emergence herbicide efficacy at 1280 g/ha, SETVI; type: in vivo; details: visual scoring vs untreated controls
Method in brief: as §4

[20] = test system: ECHCG: Echinochloa crus-galli; assay: Post-emergence herbicidal efficacy at 1280 g/ha, ECHCG; type: in vivo; details: rated visually after about 3 weeks vs untreated controls, 100% = plants have died, 0% = like control plants
Method in brief: as §5

[21] = test system: STEME: Stellaria media; assay: Post-emergence herbicidal efficacy at 1280 g/ha, STEME; type: in vivo; details: visual rating about 3 weeks after treatment vs untreated controls
Method in brief: as §5

[22] = test system: ALOMY: Alopecurus myosuroides; assay: Post-emergence herbicidal efficacy at 1280 g/ha, ALOMY; type: in vivo; details: rated visually after about 3 weeks vs untreated controls, 100% = plants have died, 0% = like control plants
Description: as §3

[23] = test system: MATIN: Matricaria inodora; assay: Pre-emergence herbicide efficacy at 1280 g/ha, MATIN; type: in vivo; details: visual scoring after about 3 weeks vs untreated controls
Method in brief: as §4

[24] = test system: STEME: Stellaria media; assay: Pre-emergence herbicide efficacy at 1280 g/ha, STEME; type: in vivo; details: visual scoring vs untreated controls
Method in brief: as §4

[25] = test system: POAAN: Poa annua; assay: Post-emergence herbicidal efficacy at 1280 g/ha, POAAN; type: in vivo; details: visual rating about 3 weeks after treatment vs untreated controls
Method in brief: as §5

[26] = test system: KCHSC: Kochia scoparia; assay: Post-emergence herbicidal efficacy at 1280 g/ha, KCHSC; type: in vivo; details: visual rating about 3 weeks after treatment vs untreated controls
Method in brief: as §5

[27] = test system: KCHSC: Kochia scoparia; assay: Pre-emergence herbicide efficacy at 80 g/ha, KCHSC; type: in vivo; details: scored visually after about 3 weeks
Description: as §1

[28] = test system: ALOMY: Alopecurus myosuroides; assay: Pre-emergence herbicide efficacy at 1280 g/ha, ALOMY; type: in vivo; details: visual scoring after about 3 weeks vs untreated controls
Description: Seeds of mono- and dicotyledonous weed plants were placed in plastic pots in sandy loam soil (doubly sown with one species each of mono- or dicotyledonous weed plants per pot) and covered with soil. The compounds of the invention, formulated in the form of wettable powders (WP) or as emulsion concentrates (EC), were then applied to the surface of the covering soil as aqueous suspension or emulsion with addition of 0.5% additive at a water application rate of 600 litres per hectare (converted). After the treatment, the pots were placed in a greenhouse and kept under good growth conditions for the test plants. After about 3 weeks, the efficacy of the preparations was scored visually in comparison with untreated controls as percentages. For example, 100% activity=the plants have died, 0% activity=like control plants. Tables C1 to C12 below show the effects of selected compounds of the general formula (I) according to Table 1 on various harmful plants and at an application rate corresponding to 1280 g/ha, which were obtained by the trial procedure specified above.

[29] = test system: MATIN: Matricaria inodora; assay: Post-emergence herbicidal efficacy at 1280 g/ha, MATIN; type: in vivo; details: visual rating about 3 weeks after treatment vs untreated controls
Description: as §3

SMILES | Pre-emergence efficacy against AMARE in % [2] [%] | Post-emergence efficacy against LOLRI [6] [%] | Pre-emergence efficacy against VERPE in % [7] [%] | Pre-emergence efficacy against ABUTH [8] [%] | Pre-emergence efficacy against AMARE [9] [%] | Post-emergence efficacy against SETVI [10] [%] | Pre-emergence efficacy against POAAN [11] [%] | Post-emergence efficacy at 1280 g/ha against ABUTH in % [12] [%] | Pre-emergence efficacy against DIGSA [13] [%] | Post-emergence efficacy at 1280 g/ha against DIGSA in % [14] [%] | Pre-emergence efficacy against KCHSC [15] [%] | Post-emergence efficacy against VERPE [16] [%] | Post-emergence efficacy at 1280 g/ha against AMARE in % [17] [%] | Pre-emergence efficacy against ECHCG [18] [%] | Pre-emergence efficacy against SETVI in % [19] [%] | Post-emergence efficacy at 1280 g/ha against ECHCG in % [20] [%] | Post-emergence efficacy against STEME [21] [%] | Pre-emergence efficacy against STEME in % [24] [%] | Post-emergence efficacy against POAAN [25] [%] | Post-emergence efficacy against KCHSC [26] [%] | also measured
O=S(=O)(CCC(F)(F)F)Oc1c(F)cccc1Cc1ncc(Cl)cn1 [Example 1-16] | 100 |  |  |  |  |  |  |  |  |  |  |  |  |  |  |  |  |  |  |  | Pre-emergence efficacy against VERPE in % [1]: 90%; Post-emergence efficacy against POLCO [3]: 80%; Post-emergence efficacy against VERPE [4]: 90%; Post-emergence efficacy against AMARE [5]: 100%
Fc1ccc(Oc2c(F)cccc2Cc2ncc(Cl)cn2)cc1 [Example 1-35, 5-Chloro-2-[3-fluoro-2-(4-fluorophenoxy)benzyl]pyrimidine] |  | 90 | 100 | 90 | 100 | 90 | 90 | 100 | 90 | 90 | 100 | 100 | 100 | 90 | 90 | 100 | 100 | 100 | 90 | 100 | Post-emergence efficacy at 1280 g/ha against ALOMY in % [22]: 90%; Pre-emergence efficacy against MATIN [23]: 90%
Clc1cnc(Cc2ccccc2Oc2ncc(Cl)cn2)nc1 [Example 1-50] | 90 |  |  |  |  |  |  |  |  |  |  |  |  |  |  |  |  |  |  |  | Pre-emergence efficacy against KCHSC in % [27]: 90%
Cc1cccc(Oc2ncc(Cl)cc2F)c1Cc1ncc(Cl)cn1 [Example 1-66] |  | 90 | 100 | 100 | 100 | 100 | 100 | 100 | 100 | 100 | 100 | 100 | 100 | 100 | 100 | 100 | 100 | 100 | 100 | 100 | Pre-emergence efficacy against ALOMY [28]: 90%; Post-emergence efficacy at 1280 g/ha against ALOMY in % [22]: 90%
Fc1cnc(Cc2ccccc2Oc2ncc(Cl)cn2)nc1 [Example 1-70] |  |  | 90 | 90 | 100 |  | 90 | 100 | 100 |  | 100 | 90 | 90 | 90 | 100 |  | 90 | 100 |  |  | Post-emergence efficacy against MATIN [29]: 90%; Pre-emergence efficacy against MATIN [23]: 100%
Fc1cc(Cl)cnc1Cc1ccccc1SCCC(F)(F)F [Example 1-110] |  | 90 |  | 90 | 100 |  | 90 | 90 |  |  |  | 100 | 100 |  |  |  | 100 | 100 | 100 | 90 | 

— US20250221410A1, “SUBSTITUTED 2-C-AZINES AND SALTS THEREOF, AND USE THEREOF AS HERBICIDAL ACTIVE SUBSTANCES” (BAYER AKTIENGESELLSCHAFT, priority 2022, published 2025)
